From patent publication US10378046B2, “Method of targeting mismatched DNA using d8 square planar metal complexes” (The University of Hong Kong, priority 2015, dated 2019) come the findings set out here.

Common to all, as to format: binding
The test system of test [1] is CC mismatched DNA. In words: Isothermal titration calorimetry with CC mismatched DNA. The following applies: 0.1 mM complex titrated by 0.75 mM DNA; 50 mM NaCl, 2 mM Tris, pH 7.5. The text has this:
ITC measures the heat absorbed or generated during a bi-molecular binding event. During ITC experiment of titrating known concentration of titrant (DNA molecules) to known quantity of titrate (Pt(II) complexes), Pt(II) complexes would bind onto the DNA molecules, generating incremental heat changes (in the unit of microcalories (μcal)). Through accurate measurement of the heat changes in each step of the titration and fitting the data by using a non-liner least square method, the best-fitted graph would yield the binding constant (K) of the bi-molecular interaction.
To determine the binding constant of Pt(II) complexes with CC mismatched DNA, 0.1 mM of Pt(II) complex in an aqueous buffer solution (50 mM NaCl, 2 mM Tris, pH 7.5) was titrated by 0.75 mM of DNA. Heat released from each step of titration had been recorded.
A general note: ITC needs no label: the signal is the heat of the interaction.

In test [2] the test system is CC mismatched DNA. Kind of test: Emission enhancement of complexes upon titration with CC mismatched DNA. The conditions noted are these: complex 5 μM, DNA 10 μM; for increase in emission intensity in the presence of CC mismatched DNA: aqueous buffer 50 mM NaCl, 2 mM Tris, pH 7.5; for ratio of emission enhancement by CC mismatched DNA to that by matched DNA (ΔIcc/ΔImat): aqueous buffer pH 7.5. How it is done:
(§1) FIGS. 1A and 1B are graphs showing the emission spectra of complex 5 (5 μM) in an aqueous buffer solution (50 mM NaCl, 2 mM Tris, pH 7.5) after binding to different concentrations of CC mismatched DNA (left) and well-matched DNA (right).
(§2) FIG. 4 is a graph showing the emission enhancement of different complexes (5 μM) towards CC mismatched DNA and matched DNA (10 μM). FIG. 5 is a graph showing the difference in emission enhancement between CC mismatched DNA and matched DNA by different complexes.

The subject of test [3] is matched DNA. Kind of test: Isothermal titration calorimetry with matched DNA. The conditions noted are these: 0.1 mM complex titrated by 0.75 mM DNA; 50 mM NaCl, 2 mM Tris, pH 7.5.
The test system of test [4] is matched DNA. Kind of test: Emission enhancement of complexes upon titration with well-matched DNA. The conditions noted are these: complex 5 μM, DNA 10 μM; aqueous buffer 50 mM NaCl, 2 mM Tris, pH 7.5. How it is done: as §1, §2
Upon addition of CC mismatch DNA, a growth of the emission band was observed, and a 27-fold increase in emission intensity was found when the concentration of CC mismatched DNA was twice as much as that of the concentration of complex 5 (FIGS. 1A and 1B). It is noteworthy that the emission enhancement of complex 5 towards CC mismatched DNA was around 7-fold more than that toward matched DNA (FIG. 2).

With `CN1C=CN(C)[CH]1[Pt]12[c]3ccccc3-c3cccc([n+]31)-c1cccc[n+]12` (centres unmarked) [Complex 1], in the test with CC mismatched DNA [1], the “difference in heat change between titration with CC mismatched DNA and matched DNA (ITC)” value is “no distinguishable difference in heat change”.

In the case of `CCCCN1C=CN(Cc2ccccc2)[CH]1[Pt]12[c]3ccccc3-c3cccc([n+]31)-c1cccc[n+]12` (centres unmarked) [Complex 5], the “increase in emission intensity in the presence of CC mismatched DNA” value (“increase … of CC mismatched DNA” below) in the test with CC mismatched DNA [2] stood at 27 fold. Further, the “heat change in the binding of matched DNA (ITC)” value in the test with matched DNA [3] is recorded as “no significant heat change”. The “binding constant (K) with CC mismatched DNA by ITC” value in the test on CC mismatched DNA [1] was 1.18×10^4.

`C1=CN(Cc2ccccc2)[CH]([Pt]23[c]4ccccc4-c4cccc([n+]42)-c2cccc[n+]23)N1Cc1ccccc1` (centres unmarked) [Complex 8]: the “increase in emission intensity in the presence of matched DNA” value (from here on “increase … of matched DNA”) in the test on matched DNA [4] is reported as “small emission enhancements”. In addition, in the test on CC mismatched DNA [2], the “increase … of CC mismatched DNA” value is given as “small emission enhancements” and the “ratio of emission enhancement by CC mismatched DNA to that by matched DNA (ΔIcc/ΔImat)” value (“ratio of emission enhancement … (ΔIcc/ΔImat)” for short) is recorded as “smaller ratios of emission enhancement by CC mismatched DNA to the enhancement by matched DNA than complex 5”.

As for `OCCN1C=CN(Cc2ccccc2)[CH]1[Pt]12[c]3ccccc3-c3cccc([n+]31)-c1cccc[n+]12` (centres unmarked) [Complex 9], the “increase … of matched DNA” value in the test on matched DNA [4] is given as “strong emission enhancement”. Moreover, the “ratio of emission enhancement … (ΔIcc/ΔImat)” value with CC mismatched DNA [2] was “smaller ratios of emission enhancement by CC mismatched DNA to the enhancement by matched DNA than complex 5”.

As for `CCCCN1C=CN(Cc2ccc3ccccc3c2)[CH]1[Pt]12[c]3ccccc3-c3cccc([n+]31)-c1cccc[n+]12` (centres unmarked) [Complex 11], the “increase … of matched DNA” value in the test with matched DNA [4] is on record as “no emission enhancement”. Further, the “increase … of CC mismatched DNA” value in the test on CC mismatched DNA [2] is “no emission enhancement”.

Consider `CCCCN1C=CN(Cc2ccccc2)[CH]1[Pt]12[c]3ccccc3-c3cc(-c4ccccc4)cc([n+]31)-c1cccc[n+]12` (centres unmarked) [Complex 16], for which the “increase … of matched DNA” value in the test with matched DNA [4] is “no emission enhancement”. For the same molecule, the “increase … of CC mismatched DNA” value with CC mismatched DNA [2] is “no emission enhancement”.

Regarding `C1=CN(CN2C=CN(Cc3ccccc3)[CH]2[Pt]23[c]4ccccc4-c4cccc([n+]42)-c2cccc[n+]23)[CH]([Pt]23[c]4ccccc4-c4cccc([n+]42)-c2cccc[n+]23)N1Cc1ccccc1` (centres unmarked) [Complex 21], the “ratio of emission enhancement … (ΔIcc/ΔImat)” value in the test on CC mismatched DNA [2] is “largest ΔIcc/ΔImat value”.
